# Results from patent US20220073536A1 (Rigel Pharmaceuticals, Inc., priority 2003, published 2022).
# Experiments:
# [1] = tested on: cultured human mast cells (CHMC); assay: CHMC low cell density ionomycin activation: tryptase assay; type: cell-based; details: low cell density CHMC, 3 pt, read-out: LD Tryptase, CHMC, Iono, 3 pt
# [2] = tested on: cultured human mast cells (CHMC); assay: CHMC low cell density IgE activation: tryptase assay; type: cell-based; details: low cell density CHMC, IgE activation
# Procedure, shortened: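 Fluorogenic readout of tryptase released into the supernatant (30 min substrate incubation, room temperature) measures degranulation. Cells were plated at low density (1000–1500/well, varied by donor) and triggered with anti-IgE for 30 min at 37 °C.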
# [3] = Homo sapiens, Mast cell, tryptase
# [4] = Homo sapiens, Mast cell, tryptase, 3 pt, read-out: LD Tryptase, CHMC, IgE, 3 pt
# [5] = tryptase, 3 pt, read-out: LD Tryptase, CHMC, IgE, 3 pt
# [6] = tryptase, 8 pt, read-out: LD Tryptase, CHMC, IgE, 8 pt
# [7] = Homo sapiens, Mast cell, tryptase, 8 pt, read-out: LD Tryptase, CHMC, IgE, 8 pt
SMILES,"IC50 [1, 3]","IC50 [2, 4]",other results
"NC(=S)c1cccc(Nc2ncc(F)c(Nc3ccc4c(c3)NC(=O)C(CCO)O4)n2)c1 (stereo not shown) [Compound 262, N2-(3-Benzothioamide)-5-fluoro-N4-[2-(2-hydroxyethyl)-3-oxo-2H,4H-benz[1,4]oxazin-6-yl]-2,4-pyrimidinediamine]",,,"IC50 ([1]; tryptase release): > 10 µM; IC50 ([2]; tryptase release, 3 pt, read-out: LD Tryptase, CHMC, IgE, 3 pt): < 10 µM"
"CNC(=O)COc1cccc(Nc2ncc(F)c(N(C)c3ccc4c(c3)OCCO4)n2)c1 [Compound 385, N4-(3,4-Ethylenedioxyphenyl)-5-fluoro-N4-methyl-N2-[3-(N-methylamino)carbonylmethyleneoxyphenyl]-2,4-pyrimidinediamine]",,,"IC50 ([1]; tryptase): > 10 µM; IC50 [2, 5]: < 10 µM; IC50 [2, 6]: < 10 µM"
"COc1cc(Nc2nc(Nc3cccc4cc(C(=O)NC(C)(C)CO)[nH]c34)ncc2F)cc(OC)c1 [Compound 389, N4-(3,5-Dimethoxyphenyl)-N2-[2-(N-1,1-dimethyl-2-hydroxyethylamino)carbonylindol-7-yl]-5-fluoro-2,4-pyrimidinediamine]",,,"IC50 ([1]; tryptase): > 10 µM; IC50 [2, 5]: < 10 µM"
"CNC(=O)COc1cccc(Nc2ncc(F)c(N(C)c3cc(OC)cc(OC)c3)n2)c1 [Compound 398, N4-(3,5-Dimethoxyphenyl)-5-fluoro-N4-methyl-N2-[3-(N-methylamino)carbonylmethyleneoxyphenyl]-2,4-pyrimidinediamine]",,,"IC50 ([1]; tryptase): > 10 µM; IC50 [2, 5]: < 10 µM"
"COc1cc(Nc2ncc(F)c(Nc3ccc(OC(C)(C)C(=O)O)c(Cl)c3)n2)cc(OC)c1 [Compound 409, N4-[3-Chloro-4-(hydroxycarbonyl-1,1-dimethylmethyleneoxy)phenyl]-N2-(3,5-dimethoxyphenyl)-5-fluoro-2,4-pyrimidinediamine]",,,"IC50 ([1]; tryptase): > 10 µM; IC50 [2, 5]: < 10 µM; IC50 [2, 6]: < 10 µM"
"CCOC(=O)C(C)(C)Oc1ccc(Nc2nc(Nc3ccc(OC)c(Cl)c3)ncc2F)cc1Cl [Compound 410, N4-[3-Chloro-4-(ethoxycarbonyl-1,1-dimethylmethyleneoxy)phenyl]-N2-(3-chloro-4-methoxyphenyl)-5-fluoro-2,4-pyrimidinediamine]",,,"IC50 ([1]; tryptase): < 10 µM; IC50 [2, 5]: < 10 µM; IC50 [2, 6]: < 10 µM"
CN(c1ccc2c(c1)OCCO2)c1nc(Nc2cccc(-c3cnco3)c2)ncc1F [Compound 411],> 10 µM,< 10 µM,"IC50 [2, 7]: < 10 µM"
COc1ccc(Nc2nc(Nc3cc(C)cc(C)c3)ncc2F)cc1OC [Compound 413],> 10 µM,< 10 µM,"IC50 [2, 7]: < 10 µM"
"COc1cc(Nc2ncc(F)c(Nc3ccc(OC)c(OC)c3)n2)cc(OC)c1 [Compound 414, N2-(3,5-Dimethoxyphenyl)-N4-(3,4-dimethoxyphenyl)-5-fluoro-2,4-pyrimidinediamine]",> 10 µM,< 10 µM,"IC50 [2, 7]: < 10 µM"
"CCOC(=O)c1cc2cccc(Nc3ncc(F)c(Nc4ccc(OC)c(OC)c4)n3)c2[nH]1 [Compound 415, N4-(3,4-Dimethoxyphenyl)-N2-[2-(ethoxycarbonyl)indol-7-yl]-5-fluoro-2,4-pyrimidinediamine]",> 10 µM,< 10 µM,"IC50 [2, 7]: < 10 µM"
CN(c1ccc2c(c1)OCCO2)c1nc(Nc2ccc(-c3ncco3)cc2)ncc1F [Compound 416],> 10 µM,< 10 µM,
COC(=O)CN(c1ccc2c(c1)OCCO2)c1nc(Cl)ncc1F [Compound 418],> 10 µM,> 10 µM,
"COc1ccc(Nc2nc(Nc3cccc(-c4cnco4)c3)ncc2F)cc1OC [Compound 419, N4-(3,4-Dimethoxyphenyl)-5-fluoro-N2-[3-(oxazol-5-yl)phenyl]-2,4-pyrimidinediamine]",> 10 µM,< 10 µM,"IC50 [2, 7]: < 10 µM"
"COC(=O)CN(c1ccc2c(c1)OCCO2)c1nc(Nc2ccc3cc[nH]c3c2)ncc1F [Compound 420, N4-(3,4-Ethylenedioxyphenyl)-5-fluoro-N2-(indol-6-yl)-N4-(methoxycarbonylmethyl)-2,4-pyrimidinediamine]",> 10 µM,< 10 µM,
"CNC(=O)c1cc2cccc(Nc3ncc(F)c(Nc4ccc(OC)c(OC)c4)n3)c2[nH]1 [Compound 421, N4-(3,4-Dimethoxyphenyl)-5-fluoro-N2-[2-(N-methylaminocarbonyl)indol-7-yl]-2,4-pyrimidinediamine]",> 10 µM,< 10 µM,

# Continued, in another order:
"IC50 [1, 3]","IC50 [2, 4]",SMILES,other results
> 10 µM,> 10 µM,COc1cc(Nc2nc(Nc3ccc4oc(C(=O)O)cc4c3)ncc2F)cc(OC)c1 [Compound 382],
> 10 µM,< 10 µM,COc1cc(Nc2ncc(F)c(N(C)c3ccc4c(c3)OCCO4)n2)cc(OC)c1 [Compound 386],"IC50 [2, 7]: < 10 µM"
> 10 µM,< 10 µM,Cc1cc(C)cc(Nc2ncc(F)c(N(C)c3ccc4c(c3)OCCO4)n2)c1 [Compound 387],
> 10 µM,> 10 µM,COc1cc(Nc2ncc(F)c(N(C)c3ccc4c(c3)NC(=O)C(C)(C)O4)n2)cc(OC)c1 [Compound 388],
> 10 µM,> 10 µM,CN(c1ccc2c(c1)OCCO2)c1nc(Cl)ncc1F [Compound 390],
< 10 µM,< 10 µM,Cc1cc(C)cc(Nc2ncc(F)c(N(C)c3ccc4c(c3)N(C)C(=O)C(C)(C)O4)n2)c1 [Compound 391],
< 10 µM,< 10 µM,COc1ccc(Nc2ncc(F)c(N(C)c3ccc4c(c3)N(C)C(=O)C(C)(C)O4)n2)cc1Cl [Compound 392],
< 10 µM,< 10 µM,COc1cc(Nc2ncc(F)c(N(C)c3ccc4c(c3)N(C)C(=O)C(C)(C)O4)n2)cc(OC)c1 [Compound 393],
< 10 µM,< 10 µM,COC(=O)c1cc2cc(Nc3ncc(F)c(N(C)c4ccc5c(c4)OCCO5)n3)ccc2o1 [Compound 395],"IC50 [2, 7]: < 10 µM"
< 10 µM,< 10 µM,Cc1cc(C)cc(Nc2ncc(F)c(Nc3ccc4c(c3)N(C)C(=O)C(C)(C)O4)n2)c1 [Compound 396],"IC50 [2, 7]: < 10 µM"
< 10 µM,< 10 µM,COc1cc(Nc2ncc(F)c(Nc3ccc4c(c3)N(C)C(=O)C(C)(C)O4)n2)cc(OC)c1 [Compound 397],"IC50 [2, 7]: < 10 µM"
> 10 µM,< 10 µM,COc1cc(Nc2ncc(F)c(N(C)c3cc(OC)cc(OC)c3)n2)cc(OC)c1 [Compound 400],
< 10 µM,< 10 µM,COC(=O)c1cc2cc(Nc3ncc(F)c(N(C)c4cc(OC)cc(OC)c4)n3)ccc2o1 [Compound 401],
> 10 µM,> 10 µM,"COc1cc(OC)cc(N(C)c2nc(Nc3ccc(OC)c(Cl)c3)ncc2F)c1 [Compound 404, N2-(3-Chloro-4-methoxyphenyl)-N4-(3,5-dimethoxyphenyl)-5-fluoro-N4-methyl-2,4-pyrimidinediamine]",
> 10 µM,< 10 µM,COc1cc(OC)cc(N(C)c2nc(Nc3ccc(Cl)c(OC)c3)ncc2F)c1 [Compound 405],
> 10 µM,< 10 µM,"CNC(=O)c1cc2cccc(Nc3ncc(F)c(N(C)c4cc(OC)cc(OC)c4)n3)c2[nH]1 [Compound 406, N4-(3,5-Dimethoxyphenyl)-5-fluoro-N4-methyl-N2-[2-(N-methylamino)carbonylindol-7-yl]-2,4-pyrimidinediamine]",
< 10 µM,< 10 µM,CN(c1ccc2c(c1)OCCO2)c1nc(Nc2cccc(-c3ncco3)c2)ncc1F [Compound 412],
